{"source": "ChEMBL document CHEMBL1147193", "about": "“New 5-substituted thiazolo[3,2-b][1,2,4]triazol-6-ones: synthesis and anticancer evaluation” (2007)", "format_in_all_cases": "functional", "key": {"[1]": {"system": "HCC 2998", "assay": "Growth inhibition of human HCC2998 cells after 48 hrs by SRB protein assay", "conditions": "HCC 2998, 48 h"}, "[2]": {"system": "UACC-257", "assay": "Growth inhibition of human UACC257 cells after 48 hrs by SRB protein assay", "conditions": "UACC-257, 48 h"}, "[3]": {"system": "HT-29", "assay": "Growth inhibition of human HT29 cells after 48 hrs by SRB protein assay", "conditions": "HT-29, 48 h"}, "[4]": {"system": "HCT-15", "assay": "Growth inhibition of human HCT15 cells after 48 hrs by SRB protein assay", "conditions": "HCT-15, 48 h"}, "[5]": {"system": "A549", "assay": "Growth inhibition of human A549/ATCC cells after 48 hrs by SRB protein assay", "conditions": "A549, 48 h"}, "[6]": {"system": "SF-295", "assay": "Growth inhibition of human SF295 cells after 48 hrs by SRB protein assay", "conditions": "SF-295, 48 h"}, "[7]": {"system": "CAKI-1", "assay": "Growth inhibition of human CAKI1 cells after 48 hrs by SRB protein assay", "conditions": "CAKI-1, 48 h"}, "[8]": {"system": "NCI-H226", "assay": "Growth inhibition of human NCI-H226 cells after 48 hrs by SRB protein assay", "conditions": "NCI-H226, 48 h"}, "[9]": {"system": "UACC-62", "assay": "Growth inhibition of human UACC62 cells after 48 hrs by SRB protein assay", "conditions": "UACC-62, 48 h"}, "[10]": {"system": "ACHN", "assay": "Growth inhibition of human ACHN cells after 48 hrs by SRB protein assay"}, "[11]": {"system": "NCI-H460", "assay": "Anticancer activity against human NCI-H460 cells assessed as growth of cells at 100 uM relative to untreated cells"}, "[12]": {"system": "K562", "assay": "Growth inhibition of human K562 cells after 48 hrs by SRB protein assay", "conditions": "K562, 48 h"}, "[13]": {"system": "OVCAR-5", "assay": "Growth inhibition of human OVCAR5 cells after 48 hrs by SRB protein assay", "conditions": "OVCAR-5, 48 h"}, "[14]": {"system": "RPMI-8226", "assay": "Growth inhibition of human RPMI8226 cells after 48 hrs by SRB protein assay", "conditions": "RPMI-8226, 48 h"}, "[15]": {"system": "Hs-578T", "assay": "Growth inhibition of human HS578T cells after 48 hrs by SRB protein assay"}, "[16]": {"system": "BT-549", "assay": "Growth inhibition of human BT549 cells after 48 hrs by SRB protein assay", "conditions": "BT-549, 48 h"}, "[17]": {"system": "LOX IMVI", "assay": "Growth inhibition of human LOX IMVI cells after 48 hrs by SRB protein assay"}, "[18]": {"system": "SK-MEL-5", "assay": "Growth inhibition of human SK-MEL-5 cells after 48 hrs by SRB protein assay", "conditions": "SK-MEL-5, 48 h"}, "[19]": {"system": "HOP-92", "assay": "Growth inhibition of human HOP92 cells after 48 hrs by SRB protein assay", "conditions": "HOP-92, 48 h"}, "[20]": {"system": "MCF7", "assay": "Anticancer activity against human MCF7 cells assessed as growth of cells at 100 uM relative to untreated cells"}, "[21]": {"system": "SF-268", "assay": "Growth inhibition of human SF268 cells after 48 hrs by SRB protein assay", "conditions": "SF-268, 48 h"}, "[22]": {"system": "MCF7", "assay": "Growth inhibition of human MCF7 cells after 48 hrs by SRB protein assay", "conditions": "MCF7, 48 h"}, "[23]": {"system": "U-251", "assay": "Growth inhibition of human U251 cells after 48 hrs by SRB protein assay", "conditions": "U-251, 48 h"}, "[24]": {"system": "M14", "assay": "Growth inhibition of human M14 cells after 48 hrs by SRB protein assay", "conditions": "M14, 48 h"}, "[25]": {"system": "786-0", "assay": "Growth inhibition of human 786-0 cells after 48 hrs by SRB protein assay", "conditions": "786-0, 48 h"}, "[26]": {"system": "HCT-116", "assay": "Growth inhibition of human HCT116 cells after 48 hrs by SRB protein assay", "conditions": "HCT-116, 48 h"}, "[27]": {"system": "RXF 393", "assay": "Growth inhibition of human RXF393 cells after 48 hrs by SRB protein assay", "conditions": "RXF 393, 48 h"}, "[28]": {"system": "PC-3", "assay": "Growth inhibition of human PC3 cells after 48 hrs by SRB protein assay", "conditions": "PC-3, 48 h"}, "[29]": {"system": "SN12C", "assay": "Growth inhibition of human SN12C cells after 48 hrs by SRB protein assay"}, "[30]": {"system": "OVCAR-8", "assay": "Growth inhibition of human OVCAR8 cells after 48 hrs by SRB protein assay", "conditions": "OVCAR-8, 48 h"}, "[31]": {"system": "NCI/ADR-RES", "assay": "Growth inhibition of human NCI/ADR-RES cells after 48 hrs by SRB protein assay"}, "[32]": {"system": "KM12", "assay": "Growth inhibition of human KM12 cells after 48 hrs by SRB protein assay", "conditions": "KM12, 48 h"}, "[33]": {"system": "SF-268", "assay": "Anticancer activity against human SF268 cells assessed as growth of cells at 100 uM relative to untreated cells"}, "[34]": {"system": "OVCAR-3", "assay": "Growth inhibition of human OVCAR-3 cells after 48 hrs by SRB protein assay", "conditions": "OVCAR-3, 48 h"}}}
{"smiles": "CCOC(=O)c1ccc(NC(=O)CC2Sc3ncnn3C2=O)cc1", "note": "(stereo not given)", "values": [{"measurement": "GI50", "setting": "[1]", "value": 18.2, "unit": "µM"}, {"measurement": "TGI", "setting": "[1]; read-out: Log TGI (converted)", "value": 32.4, "unit": "µM"}, {"measurement": "GI50", "setting": "[2]", "value": 87.1, "unit": "µM"}, {"measurement": "TGI", "setting": "[2]; read-out: Log TGI (converted)", "value": "> 100", "unit": "µM"}, {"measurement": "GI50", "setting": "[3]", "value": 43.7, "unit": "µM"}, {"measurement": "TGI", "setting": "[3]; read-out: Log TGI (converted)", "value": "> 100", "unit": "µM"}, {"measurement": "GI50", "setting": "[4]", "value": 20.9, "unit": "µM"}, {"measurement": "TGI", "setting": "[4]; read-out: Log TGI (converted)", "value": 52.5, "unit": "µM"}, {"measurement": "GI50", "setting": "[5]", "value": "> 100", "unit": "µM"}, {"measurement": "TGI", "setting": "[5]; read-out: Log TGI (converted)", "value": "> 100", "unit": "µM"}, {"measurement": "GI50", "setting": "[6]", "value": "> 100", "unit": "µM"}, {"measurement": "TGI", "setting": "[6]; read-out: Log TGI (converted)", "value": "> 100", "unit": "µM"}, {"measurement": "GI50", "setting": "[7]", "value": 63.1, "unit": "µM"}, {"measurement": "TGI", "setting": "[7]; read-out: Log TGI (converted)", "value": "> 100", "unit": "µM"}, {"measurement": "GI50", "setting": "[8]", "value": 26.3, "unit": "µM"}, {"measurement": "TGI", "setting": "[8]; read-out: Log TGI (converted)", "value": 66.1, "unit": "µM"}, {"measurement": "GI50", "setting": "[9]", "value": 40.7, "unit": "µM"}, {"measurement": "TGI", "setting": "[9]; read-out: Log TGI (converted)", "value": "> 100", "unit": "µM"}, {"measurement": "GI50", "setting": "[10]", "value": 17.4, "unit": "µM"}, {"measurement": "TGI", "setting": "[10]; read-out: Log TGI (converted)", "value": 31.6, "unit": "µM"}, {"measurement": "Activity", "setting": "[11]", "value": 0, "unit": "%"}, {"measurement": "GI50", "setting": "[12]", "value": 95.5, "unit": "µM"}, {"measurement": "TGI", "setting": "[12]; read-out: Log TGI (converted)", "value": "> 100", "unit": "µM"}, {"measurement": "GI50", "setting": "[13]", "value": 17, "unit": "µM"}, {"measurement": "TGI", "setting": "[13]; read-out: Log TGI (converted)", "value": 31.6, "unit": "µM"}, {"measurement": "GI50", "setting": "[14]", "value": 4.57, "unit": "µM"}, {"measurement": "TGI", "setting": "[14]; read-out: Log TGI (converted)", "value": 9.77, "unit": "µM"}, {"measurement": "GI50", "setting": "[15]", "value": "> 100", "unit": "µM"}, {"measurement": "TGI", "setting": "[15]; read-out: Log TGI (converted)", "value": "> 100", "unit": "µM"}, {"measurement": "GI50", "setting": "[16]", "value": 21.9, "unit": "µM"}, {"measurement": "TGI", "setting": "[16]; read-out: Log TGI (converted)", "value": 43.7, "unit": "µM"}, {"measurement": "GI50", "setting": "[17]", "value": 18.2, "unit": "µM"}, {"measurement": "TGI", "setting": "[17]; read-out: Log TGI (converted)", "value": 35.5, "unit": "µM"}, {"measurement": "GI50", "setting": "[18]", "value": "> 100", "unit": "µM"}, {"measurement": "TGI", "setting": "[18]; read-out: Log TGI (converted)", "value": "> 100", "unit": "µM"}, {"measurement": "GI50", "setting": "[19]", "value": 19.5, "unit": "µM"}, {"measurement": "TGI", "setting": "[19]; read-out: Log TGI (converted)", "value": 47.9, "unit": "µM"}, {"measurement": "Activity", "setting": "[20]", "value": 0, "unit": "%"}, {"measurement": "GI50", "setting": "[21]", "value": "> 100", "unit": "µM"}, {"measurement": "TGI", "setting": "[21]; read-out: Log TGI (converted)", "value": "> 100", "unit": "µM"}, {"measurement": "GI50", "setting": "[22]", "value": 38.9, "unit": "µM"}, {"measurement": "TGI", "setting": "[22]; read-out: Log TGI (converted)", "value": "> 100", "unit": "µM"}, {"measurement": "GI50", "setting": "[23]", "value": "> 100", "unit": "µM"}, {"measurement": "TGI", "setting": "[23]; read-out: Log TGI (converted)", "value": "> 100", "unit": "µM"}, {"measurement": "GI50", "setting": "[24]", "value": 18.6, "unit": "µM"}, {"measurement": "TGI", "setting": "[24]; read-out: Log TGI (converted)", "value": 34.7, "unit": "µM"}, {"measurement": "GI50", "setting": "[25]", "value": 15.5, "unit": "µM"}, {"measurement": "TGI", "setting": "[25]; read-out: Log TGI (converted)", "value": 28.8, "unit": "µM"}, {"measurement": "GI50", "setting": "[26]", "value": 15.8, "unit": "µM"}, {"measurement": "TGI", "setting": "[26]; read-out: Log TGI (converted)", "value": 29.5, "unit": "µM"}, {"measurement": "GI50", "setting": "[27]", "value": 21.4, "unit": "µM"}, {"measurement": "TGI", "setting": "[27]; read-out: Log TGI (converted)", "value": 67.6, "unit": "µM"}, {"measurement": "GI50", "setting": "[28]", "value": 18.2, "unit": "µM"}, {"measurement": "TGI", "setting": "[28]; read-out: Log TGI (converted)", "value": 40.7, "unit": "µM"}, {"measurement": "GI50", "setting": "[29]", "value": 26.3, "unit": "µM"}, {"measurement": "TGI", "setting": "[29]; read-out: Log TGI (converted)", "value": 87.1, "unit": "µM"}, {"measurement": "GI50", "setting": "[30]", "value": "> 100", "unit": "µM"}, {"measurement": "TGI", "setting": "[30]; read-out: Log TGI (converted)", "value": "> 100", "unit": "µM"}, {"measurement": "GI50", "setting": "[31]", "value": 18.2, "unit": "µM"}, {"measurement": "TGI", "setting": "[31]; read-out: Log TGI (converted)", "value": 36.3, "unit": "µM"}, {"measurement": "GI50", "setting": "[32]", "value": "> 100", "unit": "µM"}, {"measurement": "TGI", "setting": "[32]; read-out: Log TGI (converted)", "value": "> 100", "unit": "µM"}, {"measurement": "Activity", "setting": "[33]", "value": 8, "unit": "%"}, {"measurement": "GI50", "setting": "[34]", "value": 45.7, "unit": "µM"}, {"measurement": "TGI", "setting": "[34]; read-out: Log TGI (converted)", "value": "> 100", "unit": "µM"}]}
